According to the NIST ThermoML archive (doi:10.1021/je7003758):

Assay: xn = mol fraction of the nth substance listed
Conditions: 298.15 K, Liquid

ClCCCl [1,2-dichloroethane] + CN1CCCC1=O
mass density [kg/m3]
Conditions	x2 = 0.0993	x2 = 0.2025	x2 = 0.3012	x2 = 0.4029	x2 = 0.4975	x2 = 0.5832	x2 = 0.7037	x2 = 0.7984	x2 = 0.9029
100 kPa	1220.4	1195.3	1172.3	1149.2	1128.3	1110	1085.1	1066.3	1046.2
500 kPa	1220.7	1195.6	1172.6	1149.4	1128.5	1110.2	1085.4	1066.5	1046.5
1000 kPa	1221.2	1196	1173	1149.8	1128.9	1110.5	1085.7	1066.8	1046.7
1500 kPa	1221.7	1196.5	1173.4	1150.2	1129.2	1110.9	1086	1067.1	1047
2000 kPa	1222.1	1196.9	1173.7	1150.6	1129.6	1111.2	1086.3	1067.4	1047.3
2500 kPa	1222.6	1197.3	1174.2	1150.9	1129.9	1111.5	1086.6	1067.7	1047.6
2900 kPa	–	–	1174.5	–	–	–	–	–	–
3000 kPa	1223	1197.7	–	1151.3	1130.3	1111.9	1086.9	1068	1047.8
3400 kPa	–	–	–	1151.6	–	–	–	–	–
3500 kPa	1223.5	1198.1	1174.9	–	1130.6	–	1087.2	1068.3	1048.1
3600 kPa	–	–	–	–	–	1112.2	–	–	–
4000 kPa	1223.9	1198.5	1175.3	1152	1131	1112.5	1087.6	1068.6	1048.4
4500 kPa	1224.4	1198.9	1175.7	–	1131.3	1112.8	1087.8	1068.8	1048.6
4600 kPa	–	–	–	1152.3	–	–	–	–	–
5000 kPa	1224.8	1199.3	1176.1	1152.8	1131.6	1113.2	1088.1	1069.1	1048.9
5500 kPa	1225.2	1199.8	1176.5	1153.1	1131.9	1113.5	1088.4	1069.4	1049.2
6000 kPa	1225.7	1200.2	1176.9	1153.5	1132.4	1113.8	1088.7	1069.7	1049.4
6500 kPa	1226.1	1200.6	1177.2	1153.9	1132.7	1114.1	1089	1070	1049.7
6900 kPa	–	–	–	–	–	1114.4	–	–	–
7000 kPa	1226.5	1201	1177.6	1154.2	1133	–	1089.3	1070.3	1050
7500 kPa	1227	1201.4	1178	1154.6	1133.3	1114.8	1089.6	1070.5	1050.2
7900 kPa	–	–	–	–	1133.7	–	–	–	–
8000 kPa	1227.4	1201.8	1178.4	1154.9	–	1115	1089.9	1070.9	1050.6
8500 kPa	1227.8	1202.2	1178.8	1155.3	1134.1	1115.4	1090.2	1071.1	1050.8
8900 kPa	–	1202.6	–	–	–	–	–	–	–
9000 kPa	1228.2	–	1179.2	1155.6	1134.4	1115.7	1090.5	1071.3	1051.1
9500 kPa	1228.6	1203.1	1179.6	1156	1134.7	1116	1090.8	1071.6	1051.3
9900 kPa	–	–	1180	–	1135	–	–	–	–
10000 kPa	1229.2	1203.6	–	1156.4	–	1116.4	1091.1	1072	1051.7
10500 kPa	1229.6	1203.9	1180.4	1156.7	1135.4	1116.7	1091.4	1072.2	1051.9
10900 kPa	–	–	1180.7	–	–	1117	–	–	–
11000 kPa	1230	1204.3	–	1157.1	1135.7	–	1091.7	1072.5	1052.2
11500 kPa	1230.4	1204.6	1181.1	1157.5	1136.1	1117.4	1092	1072.8	1052.4
11900 kPa	–	–	–	–	1136.4	–	–	–	–
12000 kPa	1230.8	1205.1	1181.5	1157.8	–	1117.7	1092.3	1073	1052.7
12500 kPa	1231.3	1205.5	1181.9	1158.2	1136.8	1118	1092.6	1073.3	1053
13000 kPa	1231.7	1205.9	1182.2	1158.5	1137.1	1118.3	1092.8	1073.6	1053.2
13400 kPa	–	–	–	–	1137.4	–	–	–	–
13500 kPa	1232.1	1206.2	1182.6	1158.8	–	1118.5	1093.2	1073.9	1053.5
14000 kPa	1232.5	1206.6	1183	1159.2	1137.7	1118.9	1093.4	1074.2	1053.8
14500 kPa	1232.9	1207	–	1159.5	1138	1119.2	1093.7	1074.4	1054.1
14600 kPa	–	–	1183.4	–	–	–	–	–	–
15000 kPa	1233.3	1207.4	1183.7	1159.8	1138.4	1119.4	1094	1074.8	1054.3
15400 kPa	–	–	–	–	–	1119.8	–	–	–
15500 kPa	1233.7	1207.8	1184.1	1160.2	1138.7	–	1094.3	1075	1054.6
15900 kPa	–	1208.2	–	–	–	1120	–	–	–
16000 kPa	1234.2	–	1184.4	1160.5	1139	–	1094.6	1075.3	1054.8
16500 kPa	1234.6	1208.6	1184.8	1160.9	1139.3	1120.4	1094.8	1075.6	1055.1
17000 kPa	1235	–	1185.1	1161.2	1139.7	1120.7	1095.1	1075.9	1055.3
17100 kPa	–	1209	–	–	–	–	–	–	–
17400 kPa	–	–	1185.4	–	–	–	–	–	–
17500 kPa	1235.4	1209.4	–	1161.6	1140	1121	1095.4	1076.1	1055.6
17900 kPa	–	–	–	1161.8	–	–	–	–	–
18000 kPa	1235.8	1209.8	1185.8	–	1140.3	1121.2	1095.7	1076.4	1055.8
18400 kPa	–	1210.2	–	1162.2	–	–	–	–	–
18500 kPa	1236.2	–	1186.1	–	1140.6	1121.5	1096	1076.7	1056.1
19000 kPa	1236.6	1210.6	1186.6	1162.6	1140.9	1121.9	1096.3	1077	1056.4
19400 kPa	–	–	–	–	1141.3	–	–	–	–
19500 kPa	1237	1211	1186.9	1163	–	1122.2	1096.6	1077.2	1056.6
20000 kPa	1237.5	1211.4	1187.4	1163.4	1141.9	1122.6	1096.9	1077.5	1057.1
